Values of other authors as cited in patent US8685448B2, “Pharmaceutical solid dosage form” (Laboratorios Del Dr. Esteve, S.A., priority 2009, dated 2014).
Counter-ions that a name gives are not always drawn.

Settings: background statement

COc1ccc2nc([S@@+]([O-])Cc3ncc(C)c(OC)c3C)[nH]c2c1 [esomeprazol sodium salt, sodium salt of (−)-(S)-5-methoxy-2-[(4-methoxy-3,5-dimethylpyridin-2-yl)methylsulflnyl]-3H-benzoimidazole]
solubility in water: extremely soluble in water
